The values below come from patent US20100249419A1, “UTILIZATION OF NOVEL COMPOUNDS WITH AMYLOID AFFINITY AND METHOD OF PRODUCING THE SAME” (NIHON MEDI-PHYSICS CO., LTD., priority 2007, published 2010).

For one assay, the target named is T1, amylin amyloid (Homo sapiens, UniProt P10997).
T1 construct: Amylin (human) (manufactured by Wako); purchased Wako
T1 sequence (P10997 34-70 limits assumed): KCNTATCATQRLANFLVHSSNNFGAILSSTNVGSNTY
The assay can be described thus: In vitro binding of labeled compound to amylin amyloid (glass fiber filter). To be noted: amylin amyloid 0.8 μg/mL, 22° C., 3 hours. The protocol: (1) Using methods described in Examples 29 and 30, a 1 mg/mL suspension of aggregated amylin was prepared (hereinafter referred to as amyloid suspension in this Example) was prepared.
(§1) (8) A solution of Compound 1 which was synthesized by the method above in Example 3 was prepared (radioactivity of 500 MBq/mL), and diluted with a 0.1% bovine serum albumin-containing phosphate buffer (pH 7.4) to prepare a solution of 1.2-112.9 pM in terms of the total amount of 2-[4′-(2″-hydroxyethoxy)phenyl]-6-iodoimidazo[1,2-a]pyridine. […]
(§2) (11) The glass fiber filter used for the filtration of the mixture was washed with a 0.1% bovine serum albumin-containing phosphate buffer (0.2 mL×5), and radioactivity of the glass fiber filter was measured with an autowell gamma system (manufactured by Aloka, Type: ARC-7001).
(§3) (12) From the measurement results of (11), relation between the amount of Compound 1 binding to amyloid and addition amount of amyloid was evaluated. For a non-specific binding, it was determined from a sample in which no amyloid suspension was added above in (9) (Example 36). […]

For a further assay, the target named is T2, insulin amyloid (Homo sapiens, UniProt P01308).
T2 construct: 5 mg of insulin (manufactured by Sigma Aldrich Japan); purchased Sigma Aldrich Japan
T2 sequence (P01308 25-54 limits assumed): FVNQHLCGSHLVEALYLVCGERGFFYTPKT
T2 sequence (P01308 90-110 limits assumed): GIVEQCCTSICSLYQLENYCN
The assay can be described thus: In vitro binding of labeled compound to insulin amyloid (glass fiber filter). To be noted: insulin amyloid 0.8 μg/mL, 22° C., 3 hours. The protocol: Insulin with cross -sheet structure was prepared by the following procedures (2) and (3) which was the method described in the known literature (Burke, M. J. et al., Biochemistry. 11, p. 2435-2439 (1972)) to which a little modification was made.
(2) 5 mg of insulin (manufactured by Sigma Aldrich Japan) was dissolved in 1 mL of deionized water which was adjusted to pH 2 with hydrochloric acid, and the solution was heated at 90° C. for 10 minutes, and then quickly cooled in dry ice/ethanol.
(3) A sample solution of (2) was heated at 90° C. for 5 minutes, and then quickly cooled in dry ice/ethanol. […]
as §1, §2
(12) From the measurement results of (11), relation between the amount of Compound 1 binding to amyloid and addition amount of amyloid was evaluated. […]

The next assay deals with T3, β2-microglobulin amyloid (Homo sapiens, UniProt P61769).
T3 construct: purchased Oriental Yeast Co., ltd
T3 sequence (P61769 21-119): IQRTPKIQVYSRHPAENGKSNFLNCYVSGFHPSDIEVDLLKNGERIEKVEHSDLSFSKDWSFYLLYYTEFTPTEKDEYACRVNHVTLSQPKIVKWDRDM
The assay can be described thus: In vitro binding of labeled compound to β2-m-amyloid (glass fiber filter). The note with it: β2-m-amyloid 0.8 μg/mL, 22° C., 3 hours. The protocol: β2-microglobulin with cross -sheet structure was prepared by the following procedures (5) and (6) which was the method described in the known literature (Ohhashi, Y. et al., Journal of Biological Chemistry. 280, p. 32843-32848 (2005)) to which a little modification was made. […]
as §1, §2, §3

As for “2-[4′-(3″-hydroxypropoxy)phenyl]-6-[^123I]iodoimidazo[1,2-a]pyridine [Compound 6]”, the “Radioactivity of the glass fiber filter versus amyloid non-added group” value on amylin amyloid, at insulin amyloid and at β2-microglobulin amyloid was “all high compared to the group without amyloid suspension” in each case.
With “2-[4′-(2″-hydroxyethoxy)phenyl]-6-[^123I]iodoimidazo[1,2-a]pyridine [Compound 1]”, the “Radioactivity of the glass fiber filter versus amyloid non-added group” value at amylin amyloid, at insulin amyloid and at β2-microglobulin amyloid was “all high compared to the group without amyloid suspension” in each case.
